Experimental data as given in the supplement of paper PMC6045584.
± gives the standard deviation of the averaged measurements.

Compound: CC[C@@H](C(=O)[C@@H](C)[C@@H](O)[C@H](C)[C@@H]1O[C@@H]([C@@H](CC)C(=O)O)CC[C@@H]1C)[C@H]1O[C@]2(C=C[C@@H](O)[C@]3(CC[C@@](C)([C@H]4CC[C@](O)(CC)[C@H](C)O4)O3)O2)[C@H](C)C[C@@H]1C [SALINOMYCIN]
Assay: surviving fraction relative to DMSO-only wells; higher = less growth inhibition
Details: 50 nM; exposure time: 5 days
How it was run: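 At 250–500 cells per well in 384-well plates, log-phase tumour cell lines were seeded and, 24 hours on, exposed continuously for five days to inhibitors at 0.5, 1, 5, 10, 50, 100, 500 and 1000 nM. Viability readout was CellTiter-Glo luminescence, reported as surviving fraction normalised to the median of DMSO-only wells.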

Row | Test System | surviving fraction
1 | SCC36 HEADNECK | 1.11 ± 0.02
2 | OS25HAL BONE | 0.979 ± 0.031
3 | HCC1806 BREAST | 0.965 ± 0.17
4 | HU09 BONE | 1.04 ± 0.12
5 | SG43 HEADNECK | 0.954 ± 0.14
6 | U2OS BONE | 1.06 ± 0.019
7 | HOSMNG BONE | 1.05 ± 0.13
8 | CASKI CERVIX | 0.703 ± 0.0027
9 | SUM44 BREAST | 1.01 ± 0.033
10 | MDAMB231 BREAST | 1 ± 0.057
11 | CAL51 BREAST | 1 ± 0.017
12 | MDAMB436 BREAST | 0.464 ± 0.059
13 | HSSYII SYNOVIAL | 0.94 ± 0.017
14 | RDES SOFT TISSUE | 0.438 ± 0.22
15 | MDAMB157 BREAST | 0.982 ± 0.078
16 | CHLA90 AUTONOMIC GANGLIA | 0.949 ± 0.069
17 | CADOES1 SOFT TISSUE | 0.856 ± 0.041
18 | SG31 HEADNECK | 0.924 ± 0.048
19 | SCC47 HEADNECK | 1.06 ± 0.085
20 | S68 BREAST | 0.934 ± 0.22

Row | Test System | surviving fraction
21 | SNU475 LIVER | 1.04 ± 0.036
22 | 22RV1 PROSTATE | 0.817 ± 0.031
23 | SG32 HEADNECK | 0.921 ± 0.13
24 | SCC003 HEADNECK | 1.04 ± 0.11
25 | JURKAT HAEMATOPOIETIC AND LYMPHOID TISSUE | 0.815 ± 0.024
26 | HT1080 SOFT TISSUE | 1.06 ± 0.03
27 | CAL120 BREAST | 0.661 ± 0.01
28 | MCF7 BREAST | 0.941 ± 0.02
29 | MFM223 BREAST | 0.979 ± 0.051
30 | LNCAP PROSTATE | 0.643 ± 0.01
31 | PCI30 HEADNECK | 0.813 ± 0.013
32 | OSHN BONE | 1.01 ± 0.018
33 | SG28 HEADNECK | 0.835 ± 0.077
34 | HOS BONE | 1.03 ± 0.012
35 | HUO3N1 BONE | 0.844 ± 0.012
36 | BT20 BREAST | 1.32 ± 0.19
37 | SJSA1 BONE | 1.02 ± 0.023
38 | JIMT1 BREAST | 0.988 ± 0.033
39 | HCC78 LUNG | 0.72 ± 0.095
40 | NY BONE | 0.851 ± 0.028

Same assay, conditions: 100 nM; exposure time: 5 days

Row | Test System | surviving fraction
41 | SCC36 HEADNECK | 0.925 ± 0.051
42 | OS25HAL BONE | 0.792 ± 0.017
43 | HCC1806 BREAST | 0.873 ± 0.04
44 | HU09 BONE | 0.897 ± 0.077
45 | SG43 HEADNECK | 1.16 ± 0.13
46 | U2OS BONE | 1.04 ± 0.029
47 | HOSMNG BONE | 0.993 ± 0.18
48 | CASKI CERVIX | 0.583 ± 0.028
49 | SUM44 BREAST | 1.02 ± 0.028
50 | MDAMB231 BREAST | 0.953 ± 0.016
51 | CAL51 BREAST | 0.972 ± 0.034
52 | MDAMB436 BREAST | 0.375 ± 0.049
53 | HSSYII SYNOVIAL | 0.743 ± 0.033
54 | RDES SOFT TISSUE | 0.0573 ± 0.0031
55 | MDAMB157 BREAST | 0.819 ± 0.054
56 | CHLA90 AUTONOMIC GANGLIA | 0.877 ± 0.048
57 | CADOES1 SOFT TISSUE | 0.454 ± 0.1
58 | SG31 HEADNECK | 0.863 ± 0.093
59 | SCC47 HEADNECK | 1 ± 0.12
60 | S68 BREAST | 0.731 ± 0.079

Row | Test System | surviving fraction
61 | SNU475 LIVER | 0.871 ± 0.033
62 | 22RV1 PROSTATE | 0.448 ± 0.038
63 | SG32 HEADNECK | 0.636 ± 0.016
64 | SCC003 HEADNECK | 0.897 ± 0.05
65 | JURKAT HAEMATOPOIETIC AND LYMPHOID TISSUE | 0.673 ± 0.018
66 | HT1080 SOFT TISSUE | 1.03 ± 0.089
67 | CAL120 BREAST | 0.334 ± 0.015
68 | MCF7 BREAST | 0.908 ± 0.055
69 | MFM223 BREAST | 0.461 ± 0.03
70 | LNCAP PROSTATE | 0.215 ± 0.013
71 | PCI30 HEADNECK | 0.64 ± 0.064
72 | OSHN BONE | 0.966 ± 0.013
73 | SG28 HEADNECK | 0.762 ± 0.046
74 | HOS BONE | 0.858 ± 0.032
75 | HUO3N1 BONE | 0.51 ± 0.023
76 | BT20 BREAST | 1.19 ± 0.25
77 | SJSA1 BONE | 0.966 ± 0.023
78 | JIMT1 BREAST | 0.95 ± 0.013
79 | HCC78 LUNG | 0.697 ± 0.24
80 | NY BONE | 0.654 ± 0.0095

Same assay, conditions: 500 nM; exposure time: 5 days

Row | Test System | surviving fraction
81 | SCC36 HEADNECK | 0.149 ± 0.011
82 | OS25HAL BONE | 0.122 ± 0.014
83 | HCC1806 BREAST | 0.33 ± 0.056
84 | HU09 BONE | 0.476 ± 0.036
85 | SG43 HEADNECK | 0.459 ± 0.023
86 | U2OS BONE | 0.783 ± 0.024
87 | HOSMNG BONE | 0.909 ± 0.09
88 | CASKI CERVIX | 0.3273 ± 0.0031
89 | SUM44 BREAST | 0.852 ± 0.031
90 | MDAMB231 BREAST | 0.559 ± 0.011
91 | CAL51 BREAST | 0.615 ± 0.022
92 | MDAMB436 BREAST | 0.105 ± 0.0028
93 | HSSYII SYNOVIAL | 0.0705 ± 0.0015
94 | RDES SOFT TISSUE | 0.399 ± 0.021
95 | MDAMB157 BREAST | 0.217 ± 0.043
96 | CHLA90 AUTONOMIC GANGLIA | 0.169 ± 0.028
97 | CADOES1 SOFT TISSUE | 0.147 ± 0.0061
98 | SG31 HEADNECK | 0.413 ± 0.033
99 | SCC47 HEADNECK | 0.561 ± 0.068
100 | S68 BREAST | 0.337 ± 0.099

Row | Test System | surviving fraction
101 | SNU475 LIVER | 0.46 ± 0.046
102 | 22RV1 PROSTATE | 0.195 ± 0.021
103 | SG32 HEADNECK | 0.133 ± 0.01
104 | SCC003 HEADNECK | 0.49 ± 0.021
105 | JURKAT HAEMATOPOIETIC AND LYMPHOID TISSUE | 0.23 ± 0.005
106 | HT1080 SOFT TISSUE | 0.78 ± 0.035
107 | CAL120 BREAST | 0.088 ± 0.0061
108 | MCF7 BREAST | 0.677 ± 0.014
109 | MFM223 BREAST | 0.0642 ± 0.0082
110 | LNCAP PROSTATE | 0.0563 ± 0.005
111 | PCI30 HEADNECK | 0.202 ± 0.005
112 | OSHN BONE | 0.247 ± 0.005
113 | SG28 HEADNECK | 0.498 ± 0.068
114 | HOS BONE | 0.0367 ± 0.0031
115 | HUO3N1 BONE | 0.167 ± 0.0067
116 | BT20 BREAST | 1.22 ± 0.31
117 | SJSA1 BONE | 0.404 ± 0.041
118 | JIMT1 BREAST | 0.51 ± 0.024
119 | HCC78 LUNG | 0.228 ± 0.014
120 | NY BONE | 0.241 ± 0.009

Same assay, conditions: 1000 nM; exposure time: 5 days

Row | Test System | surviving fraction
121 | SCC36 HEADNECK | 0.08 ± 0.0078
122 | OS25HAL BONE | 0.0527 ± 0.0015
123 | HCC1806 BREAST | 0.223 ± 0.0067
124 | HU09 BONE | 0.271 ± 0.0068
125 | SG43 HEADNECK | 0.285 ± 0.11
126 | U2OS BONE | 0.538 ± 0.035
127 | HOSMNG BONE | 0.511 ± 0.12
128 | CASKI CERVIX | 0.289 ± 0.024
129 | SUM44 BREAST | 0.748 ± 0.037
130 | MDAMB231 BREAST | 0.425 ± 0.0083
131 | CAL51 BREAST | 0.359 ± 0.018
132 | MDAMB436 BREAST | 0.0963 ± 0.0055
133 | HSSYII SYNOVIAL | 0.0267 ± 0.0019
134 | RDES SOFT TISSUE | 0.218 ± 0.014
135 | MDAMB157 BREAST | 0.139 ± 0.011
136 | CHLA90 AUTONOMIC GANGLIA | 0.0267 ± 0.00058
137 | CADOES1 SOFT TISSUE | 0.105 ± 0.004
138 | SG31 HEADNECK | 0.317 ± 0.047
139 | SCC47 HEADNECK | 0.489 ± 0.023
140 | S68 BREAST | 0.209 ± 0.03

Row | Test System | surviving fraction
141 | SNU475 LIVER | 0.31 ± 0.018
142 | 22RV1 PROSTATE | 0.125 ± 0.015
143 | SG32 HEADNECK | 0.054 ± 0.0044
144 | SCC003 HEADNECK | 0.267 ± 0.016
145 | JURKAT HAEMATOPOIETIC AND LYMPHOID TISSUE | 0.101 ± 0.0053
146 | HT1080 SOFT TISSUE | 0.557 ± 0.018
147 | CAL120 BREAST | 0.0535 ± 0.0022
148 | MCF7 BREAST | 0.348 ± 0.028
149 | MFM223 BREAST | 0.0428 ± 0.0051
150 | LNCAP PROSTATE | 0.0493 ± 0.0031
151 | PCI30 HEADNECK | 0.145 ± 0.0085
152 | OSHN BONE | 0.115 ± 0.0046
153 | SG28 HEADNECK | 0.323 ± 0.037
154 | HOS BONE | 0.0627 ± 0.019
155 | HUO3N1 BONE | 0.151 ± 0.0097
156 | BT20 BREAST | 1.13 ± 0.3
157 | SJSA1 BONE | 0.27 ± 0.043
158 | JIMT1 BREAST | 0.356 ± 0.02
159 | HCC78 LUNG | 0.143 ± 0.022
160 | NY BONE | 0.136 ± 0.0072
